# From patent US10118935B2, “Melampomagnolide B dimers” (priority 2014, dated 2018)
# Key:
# OVCAR-5 = assay: NCI 60 cell line five dose, Ovarian Cancer
# PC-3 = assay: NCI 60 cell line five dose, Prostate Cancer; details: for CC50: read-out: LC50
# HT29 = assay: NCI 60 cell line five dose, Colon Cancer
# NCI-H522 = assay: NCI 60 cell line five dose, Non-Small Cell Lung Cancer
# CCRF-CEM = assay: NCI 60 cell line five dose, Leukemia
# UACC-62 = assay: NCI 60 cell line five dose, Melanoma
# RXF 393 = assay: NCI 60 cell line five dose, Renal Cancer
# HCT-15 = assay: NCI 60 cell line five dose, Colon Cancer
# SN12C = assay: NCI 60 cell line five dose, Renal Cancer
# SK-MEL-5 = assay: NCI 60 cell line five dose, Melanoma; details: SK-MEL-5
# MCF7 = assay: NCI 60 cell line five dose, Breast Cancer
# UACC-257 = assay: NCI 60 cell line five dose, Melanoma
# RPMI-8226 = assay: NCI 60 cell line five dose, Leukemia
# A498 = assay: NCI 60 cell line five dose, Renal Cancer
# SNB-75 = assay: NCI 60 cell line five dose, CNS Cancer
# MDA-MB-435 = assay: NCI 60 cell line five dose, Melanoma
# SF-295 = assay: NCI 60 cell line five dose, CNS Cancer
# NCI/ADR-RES = assay: NCI 60 cell line five dose, Ovarian Cancer; details: NCI/ADR-RES
# MDA-MB-468 = assay: NCI 60 cell line five dose, Breast Cancer
# BT-549 = assay: NCI 60 cell line five dose, Breast Cancer
# SK-MEL-28 = assay: NCI 60 cell line five dose, Melanoma; details: SK-MEL-28
# COLO 205 = assay: NCI 60 cell line five dose, Colon Cancer
# MALME-3M = assay: NCI 60 cell line five dose, Melanoma; details: MALME-3M
# HS 578T = assay: NCI 60 cell line five dose, Breast Cancer; details: HS 578T
compound,measurement,setting,value
"C=C1C(=O)O[C@H]2[C@H]1CC/C(COC(=O)CCC(=O)NCCCCCCCCCNC(=O)CCC(=O)OC/C1=C/CC[C@@]3(C)O[C@H]3[C@H]3OC(=O)C(=C)[C@@H]3CC1)=C\CC[C@@]1(C)O[C@@H]21 [JVM 2-92, bis(((1aR,7aS,10aS,10bS,E)-1a-Methyl-8-methylene-9-oxo-1a,2,3,6,7,7a,8,9,10a,10b-decahydrooxireno[2′,3′:9,10]cyclodeca[1,2-b]furan-5-yl)methyl)4,4′-(nonane-1,9-diylbis(azanediyl))bis (4-oxobutanoate)]",GI50,OVCAR-5,1.7 µM
same,TGI,OVCAR-5,3.47 µM
same,GI50,PC-3,2.53 µM
same,TGI,PC-3,7.31 µM
same,GI50,HT29,1.33 µM
same,TGI,HT29,2.75 µM
same,GI50,NCI-H522,0.42 µM
same,TGI,NCI-H522,1.64 µM
same,GI50,CCRF-CEM,0.28 µM
same,TGI,CCRF-CEM,1.00 µM
same,GI50,UACC-62,1.69 µM
same,TGI,UACC-62,3.78 µM
same,GI50,RXF 393,1.01 µM
same,TGI,RXF 393,2.50 µM
same,GI50,HCT-15,2.63 µM
same,TGI,HCT-15,11.9 µM
same,GI50,SN12C,2.69 µM
same,TGI,SN12C,10.3 µM
same,GI50,SK-MEL-5,1.88 µM
same,TGI,SK-MEL-5,4.19 µM
same,GI50,MCF7,0.42 µM
same,TGI,MCF7,1.85 µM
same,GI50,UACC-257,2.06 µM
same,TGI,UACC-257,5.59 µM
same,GI50,RPMI-8226,0.5 µM
same,TGI,RPMI-8226,3.33 µM
same,GI50,A498,2.72 µM
same,TGI,A498,8.30 µM
same,GI50,SNB-75,1.47 µM
same,TGI,SNB-75,4.35 µM
same,GI50,MDA-MB-435,1.63 µM
same,TGI,MDA-MB-435,3.44 µM
same,GI50,SF-295,7.68 µM
same,TGI,SF-295,21.9 µM
same,GI50,NCI/ADR-RES,26.7 µM
same,TGI,NCI/ADR-RES,>100 µM
same,GI50,MDA-MB-468,0.98 µM
same,TGI,MDA-MB-468,2.64 µM
same,GI50,BT-549,0.66 µM
same,TGI,BT-549,2.03 µM
same,GI50,SK-MEL-28,1.47 µM
same,TGI,SK-MEL-28,3.03 µM
same,GI50,COLO 205,1.22 µM
same,TGI,COLO 205,3.16 µM
same,GI50,MALME-3M,1.94 µM
same,TGI,MALME-3M,4.17 µM
same,GI50,HS 578T,2.99 µM
same,TGI,HS 578T,24.9 µM
"C=C1C(=O)O[C@H]2[C@H]1CC/C(COC(=O)NCCCCCNC(=O)OC/C1=C/CC[C@@]3(C)O[C@H]3[C@H]3OC(=O)C(=C)[C@@H]3CC1)=C\CC[C@@]1(C)O[C@@H]21 [JVM 2-76, bis(((1aR,7aS,10aS,10bS,E)-1a-Methyl-8-methylene-9-oxo-1a,2,3,6,7,7a,8,9,10a,10b-decahydrooxireno[2′,3′:9,10]cyclodeca[1,2-b]furan-5-yl)methyl)pentane-1,5-diyldicarbamate]",GI50,OVCAR-5,1.67 µM
same,TGI,OVCAR-5,3.53 µM
same,CC50,OVCAR-5; read-out: LC50,7.47 µM
same,GI50,PC-3,3.79 µM
same,TGI,PC-3,15.6 µM
same,CC50,PC-3,49.4 µM
same,GI50,HT29,0.51 µM
same,TGI,HT29,1.78 µM
same,CC50,HT29; read-out: LC50,4.85 µM
same,GI50,NCI-H522,0.22 µM
same,TGI,NCI-H522,0.44 µM
same,CC50,NCI-H522; read-out: LC50,0.88 µM
same,GI50,CCRF-CEM,0.28 µM
same,TGI,CCRF-CEM,0.96 µM
same,CC50,CCRF-CEM; read-out: LC50,> 100 µM
same,GI50,UACC-62,1.41 µM
same,TGI,UACC-62,3.16 µM
same,CC50,UACC-62; read-out: LC50,7.04 µM
same,GI50,RXF 393,0.85 µM
same,TGI,RXF 393,2.43 µM
same,CC50,RXF 393; read-out: LC50,6.35 µM
same,GI50,HCT-15,6.18 µM
same,TGI,HCT-15,20.7 µM
same,CC50,HCT-15; read-out: LC50,49.8 µM
same,GI50,SN12C,2.49 µM
same,TGI,SN12C,10.7 µM
same,CC50,SN12C; read-out: LC50,45.5 µM
same,GI50,SK-MEL-5,3.19 µM
same,TGI,SK-MEL-5,12.2 µM
same,CC50,SK-MEL-5; read-out: LC50,37 µM
same,GI50,MCF7,0.39 µM
same,TGI,MCF7,1.93 µM
same,CC50,MCF7; read-out: LC50,6.2 µM
same,GI50,UACC-257,2.07 µM
same,TGI,UACC-257,7.46 µM
same,CC50,UACC-257; read-out: LC50,42.4 µM
same,GI50,RPMI-8226,0.78 µM
same,TGI,RPMI-8226,4.16 µM
same,CC50,RPMI-8226; read-out: LC50,> 100 µM
same,GI50,A498,6.24 µM
same,TGI,A498,19.4 µM
same,CC50,A498; read-out: LC50,47.5 µM
same,GI50,SNB-75,2.2 µM
same,TGI,SNB-75,11.4 µM
same,CC50,SNB-75; read-out: LC50,33.8 µM
same,GI50,MDA-MB-435,1.51 µM
same,TGI,MDA-MB-435,3.32 µM
same,CC50,MDA-MB-435; read-out: LC50,7.3 µM
same,GI50,SF-295,11.1 µM
same,TGI,SF-295,26.9 µM
same,CC50,SF-295; read-out: LC50,65.2 µM
same,GI50,NCI/ADR-RES,70 µM
same,TGI,NCI/ADR-RES,>100 µM
same,CC50,NCI/ADR-RES; read-out: LC50,> 100 µM
same,GI50,MDA-MB-468,1.06 µM
same,TGI,MDA-MB-468,3.96 µM
same,CC50,MDA-MB-468; read-out: LC50,24.7 µM
same,GI50,BT-549,1 µM
same,TGI,BT-549,2.23 µM
same,CC50,BT-549; read-out: LC50,4.96 µM
same,GI50,SK-MEL-28,1.58 µM
same,TGI,SK-MEL-28,4.13 µM
same,CC50,SK-MEL-28; read-out: LC50,12.6 µM
same,GI50,COLO 205,0.52 µM
same,TGI,COLO 205,2.33 µM
same,CC50,COLO 205; read-out: LC50,7.97 µM
same,GI50,MALME-3M,2.06 µM
same,TGI,MALME-3M,5.24 µM
same,CC50,MALME-3M; read-out: LC50,27.3 µM
same,GI50,HS 578T,2.91 µM
same,TGI,HS 578T,13.0 µM
same,CC50,HS 578T; read-out: LC50,> 100 µM
"C=C1C(=O)O[C@H]2[C@H]1CC/C(COC(=O)CCC(=O)NCCCCCCCCNC(=O)CCC(=O)OC/C1=C/CC[C@@]3(C)O[C@H]3[C@H]3OC(=O)C(=C)[C@@H]3CC1)=C\CC[C@@]1(C)O[C@@H]21 [JVM 2-87, bis(((1aR,7aS,10aS,10bS,E)-1a-Methyl-8-methylene-9-oxo-1a,2,3,6,7,7a,8,9,10a,1b-decahydrooxireno[2′,3′:9,10]cyclodeca[1,2-b]furan-5-yl)methyl)4,4′-(octane-1,8-diylbis(azanediyl))bis(4-oxobutanoate)]",GI50,OVCAR-5,1.82 µM
same,TGI,OVCAR-5,3.64 µM
same,GI50,PC-3,3.64 µM
same,TGI,PC-3,13.7 µM
same,CC50,PC-3,40.7 µM
same,GI50,HT29,1.64 µM
same,TGI,HT29,3.12 µM
same,GI50,NCI-H522,0.48 µM
same,TGI,NCI-H522,1.80 µM
same,GI50,CCRF-CEM,0.32 µM
same,TGI,CCRF-CEM,1.48 µM
same,GI50,UACC-62,1.97 µM
same,TGI,UACC-62,4.20 µM
same,GI50,RXF 393,0.85 µM
same,TGI,RXF 393,2.61 µM
same,GI50,HCT-15,3.6 µM
same,TGI,HCT-15,15.6 µM
same,GI50,SN12C,3.74 µM
same,TGI,SN12C,14.8 µM
same,GI50,SK-MEL-5,3.13 µM
same,TGI,SK-MEL-5,11.1 µM
same,GI50,MCF7,0.77 µM
same,TGI,MCF7,2.47 µM
same,GI50,UACC-257,1.76 µM
same,TGI,UACC-257,4.48 µM
same,GI50,RPMI-8226,1.67 µM
same,TGI,RPMI-8226,5.70 µM
same,GI50,A498,6.72 µM
same,TGI,A498,20.8 µM
same,GI50,SNB-75,2.02 µM
same,TGI,SNB-75,7.25 µM
same,GI50,MDA-MB-435,1.8 µM
same,TGI,MDA-MB-435,3.69 µM
same,GI50,SF-295,15.1 µM
same,TGI,SF-295,29.3 µM
same,GI50,NCI/ADR-RES,33.5 µM
same,TGI,NCI/ADR-RES,>100 µM
same,GI50,MDA-MB-468,1.33 µM
same,TGI,MDA-MB-468,3.84 µM
same,GI50,BT-549,1.23 µM
same,TGI,BT-549,2.51 µM
same,GI50,SK-MEL-28,1.65 µM
same,TGI,SK-MEL-28,3.23 µM
same,GI50,COLO 205,1.35 µM
same,TGI,COLO 205,3.14 µM
same,GI50,MALME-3M,2.04 µM
same,TGI,MALME-3M,4.04 µM
same,GI50,HS 578T,3.88 µM
same,TGI,HS 578T,29.5 µM
